Measurements as given in patent US8921389B2, “Naphthyridine derivatives as inhibitors of hypoxia inducible factor (HIF) hydroxylase” (Fibrogen, Inc., priority 2011, dated 2014).

Target: HIF-PH2 (EGLN1) (Homo sapiens (Human), UniProt Q9GZT9)
Experiment: HIF-PH assay (14CO2 capture, peptide-dependent turnover)
Format: biochemical
Settings: enzyme inhibition against HIF-PH2; peptide-dependent percent turnover
Description: Ketoglutaric acid α-[1-^14C]-sodium salt, alpha-ketoglutaric acid sodium salt, and HPLC purified peptide may be obtained from commercial sources, e.g., Perkin-Elmer (Wellesley Mass.), Sigma-Aldrich, and SynPep Corp. (Dublin Calif.), respectively. […] For example, a HIF peptide for use in the HIF-PH assay is [methoxycoumarin]-[…]-amide. HIF-PH, e.g., HIF-PH2 (EGLN1), can be expressed in, e.g., insect Hi5 cells, and partially purified, e.g., through a SP ion exchange chromatography column. […] Reactions are initiated by addition of HIF-PH enzyme.
The peptide-dependent percent turnover is calculated by subtracting percent turnover in the absence of peptide from percent turnover in the presence of substrate peptide. Percent inhibition and IC50 are calculated using peptide-dependent percent turnover at given inhibitor concentrations. Calculation of IC50 values for each inhibitor is conducted using GraFit software (Erithacus Software Ltd., Surrey UK).
Representative compounds of the disclosure were analyzed using the HIF-PH assay described above.

Chain of HIF-PH2 (EGLN1) (Q9GZT9 whole entry): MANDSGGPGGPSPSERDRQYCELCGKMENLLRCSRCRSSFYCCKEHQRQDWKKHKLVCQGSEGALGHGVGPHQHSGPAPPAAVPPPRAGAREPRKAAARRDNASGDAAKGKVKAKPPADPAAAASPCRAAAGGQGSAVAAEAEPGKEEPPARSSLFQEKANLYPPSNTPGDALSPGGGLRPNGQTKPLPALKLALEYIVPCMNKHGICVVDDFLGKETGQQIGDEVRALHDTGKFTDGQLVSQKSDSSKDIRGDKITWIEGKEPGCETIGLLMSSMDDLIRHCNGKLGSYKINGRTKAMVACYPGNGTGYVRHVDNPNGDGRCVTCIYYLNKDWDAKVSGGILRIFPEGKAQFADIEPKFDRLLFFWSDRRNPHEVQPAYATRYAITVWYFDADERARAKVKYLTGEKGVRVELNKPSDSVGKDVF

| IC50 | Compound |
| --- | --- |
| > 200 µM | CNC(=O)c1nc(C#N)c2c(=O)n(Cc3ccccc3)ccc2c1O [Example 38, 7-Benzyl-1-cyano-4-hydroxy-8-oxo-7,8-dihydro-[2,7]naphthyridine-3-carboxylic acid methylamide] |
| 195 µM | N#Cc1nc(C(=O)NCc2ccncc2)c(O)c2ccn(Cc3ccccc3)c(=O)c12 [Example 48, 7-Benzyl-1-cyano-4-hydroxy-8-oxo-7,8-dihydro-[2,7]naphthyridine-3-carboxylic acid (pyridin-4-ylmethyl)-amide] |
| 177 µM | N#Cc1nc(C(=O)NCc2ccnnc2)c(O)c2ccn(Cc3ccccc3)c(=O)c12 [Example 60, 7-Benzyl-1-cyano-4-hydroxy-8-oxo-7,8-dihydro-[2,7]naphthyridine-3-carboxylic acid (pyridazin-4-ylmethyl)-amide] |
| 200 µM | C[C@@H](c1ccccc1)n1c(=O)c(-c2ccccc2)cc2c(O)c(C(=O)NCCC(=O)O)nc(-c3cccnc3)c21 [Example 175, (S)-3-{[5-Hydroxy-2-oxo-3-phenyl-1-(1-phenyl-ethyl)-8-pyridin-3-yl-1,2-dihydro-[1,7]naphthyridine-6-carbonyl]-amino}-propionic acid] |
| 199 µM | Cc1ncccc1-c1nc(C(=O)NCCC(=O)O)c(O)c2cc(-c3ccccc3)c(=O)n(Cc3ccccc3)c12 [Example 178, 3-{[1-Benzyl-5-hydroxy-8-(2-methyl-pyridin-3-yl)-2-oxo-3-phenyl-1,2-dihydro-[1,7]naphthyridine-6-carbonyl]-amino}-propionic acid] |
| 200 µM | O=C(O)CCNC(=O)c1nc(-c2ccncc2)c2c(cc(-c3ccccc3)c(=O)n2CC2CCCCC2)c1O [Example 198, 3-[(1-Cyclohexylmethyl-5-hydroxy-2-oxo-3-phenyl-8-pyridin-4-yl-1,2-dihydro-[1,7]naphthyridine-6-carbonyl)-amino]-propionic acid] |
| 200 µM | CN(CCNC(=O)c1nc(-c2cccnc2)c2c(cc(-c3ccccc3)c(=O)n2Cc2ccccc2)c1O)S(C)(=O)=O [Example 134, 1-Benzyl-5-hydroxy-2-oxo-3-phenyl-8-pyridin-3-yl-1,2-dihydro-[1,7]naphthyridine-6-carboxylic acid [2-(methanesulfonyl-methyl-amino)-ethyl]amide] |
| > 200 µM | CC(C)(CNC(=O)c1ncc2ccc(=O)n(Cc3ccccc3)c2c1O)C(=O)O [Example 71, 3-[(1-Benzyl-8-hydroxy-2-oxo-1,2-dihydro-[1,6]naphthyridine-7-carbonyl)-amino]-2,2-dimethyl-propionic acid] |
| 200 µM | O=C(O)CCCCNC(=O)c1nc(-c2cccnc2)c2c(cc(-c3ccccc3)c(=O)n2Cc2ccccc2)c1O [Example 163, 5-[(1-Benzyl-5-hydroxy-2-oxo-3-phenyl-8-pyridin-3-yl-1,2-dihydro-[1,7]naphthyridine-6-carbonyl)-amino]-pentanoic acid] |
| > 200 µM | CCCNC(=O)CCCNC(=O)c1nc(C#N)c2c(=O)n(Cc3ccccc3)ccc2c1O [Example 73, 7-Benzyl-1-cyano-4-hydroxy-8-oxo-7,8-dihydro-[2,7]naphthyridine-3-carboxylic acid (3-propylcarbamoyl-propyl)-amide] |
| > 200 µM | CC(C)(CNC(=O)c1nc(C#N)c2c(=O)n(Cc3ccccc3)ccc2c1O)C(=O)O [Example 50, 3-[(7-Benzyl-1-cyano-4-hydroxy-8-oxo-7,8-dihydro-[2,7]naphthyridine-3-carbonyl)-amino]-2,2-dimethyl-propionic acid] |
| > 200 µM | CNC(=O)c1nc(C#N)c2ccc(=O)n(Cc3ccccc3)c2c1O [Example 79, 1-Benzyl-5-cyano-8-hydroxy-2-oxo-1,2-dihydro-[1,6]naphthyridine-7-carboxylic acid methylamide] |
| > 200 µM | CNC(=O)c1nc(C#N)c2c(cc(-c3ccccc3)c(=O)n2Cc2ccccc2)c1O [Example 41, 1-Benzyl-8-cyano-5-hydroxy-2-oxo-3-phenyl-1,2-dihydro-[1,7]naphthyridine-6-carboxylic acid methylamide] |
| 182 µM | N#Cc1nc(C(=O)NCC2(C(=O)O)CCC2)c(O)c2ccn(Cc3ccccc3)c(=O)c12 [Example 62, 1-{[(7-Benzyl-1-cyano-4-hydroxy-8-oxo-7,8-dihydro-[2,7]naphthyridine-3-carbonyl)-amino]-methyl}-cyclobutanecarboxylic acid] |
| 103 µM | O=C(N[C@H](Cc1ccccc1)C(=O)O)c1ncc2c(cc(-c3ccccc3)c(=O)n2Cc2ccccc2)c1O [Example 152, (R)-2-[(1-Benzyl-5-hydroxy-2-oxo-3-phenyl-1,2-dihydro-[1,7]naphthyridine-6-carbonyl)-amino]-3-phenyl-propionic acid] |
